Data on 24 molecules can be found in patent US11548870B2, “Compounds useful as inhibitors of helios protein” (Bristol-Myers Squibb Company, priority 2019, dated 2023).

In one assay the target is T1, Ikaros (Homo sapiens, UniProt Q13422).
T1 construct: fluorescently labelled antibodies against Helios and Ikaros; endogenous in cells; host or cells: Jurkat cells
The experiment in a line: Helios Cellular Degradation Assay, Ikaros readout (flow cytometry, Ikaros-Alexa488 antibody staining, 72 h). Format: cell-based. The following applies: for Dmax: Jurkat, read-out: Ikaros Dmax. In a few lines: (§1)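 Jurkat cells (80,000/well, RPMI+10% FBS) were exposed to compound for 72 h at 37 °C, then fixed, permeabilized and co-stained for 1 h with Ikaros-Alexa488 and Helios-PE antibodies. Intracellular protein levels were read by flow cytometry.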
(In general: A flow cytometer gives signals particle by particle.)

The next assay concerns the target T2, Helios (Homo sapiens, UniProt Q96SW2+Q9UKS7).
T2 construct: fluorescently labelled antibodies against Helios and Ikaros; endogenous in cells; host or cells: Jurkat cells
The assay can be described thus: Helios Cellular Degradation Assay (flow cytometry, Helios-PE antibody staining, 72 h). Format: cell-based. The note with it: for Dmax: Jurkat, read-out: Helios Dmax. The method, boiled down: as §1

The mark [1] stands for this setting: Jurkat cells, 72 h incubation, flow cytometry.

Like-named read-outs stand apart in the source and are kept apart here.

T1 sequence (Q96SW2 whole entry partner): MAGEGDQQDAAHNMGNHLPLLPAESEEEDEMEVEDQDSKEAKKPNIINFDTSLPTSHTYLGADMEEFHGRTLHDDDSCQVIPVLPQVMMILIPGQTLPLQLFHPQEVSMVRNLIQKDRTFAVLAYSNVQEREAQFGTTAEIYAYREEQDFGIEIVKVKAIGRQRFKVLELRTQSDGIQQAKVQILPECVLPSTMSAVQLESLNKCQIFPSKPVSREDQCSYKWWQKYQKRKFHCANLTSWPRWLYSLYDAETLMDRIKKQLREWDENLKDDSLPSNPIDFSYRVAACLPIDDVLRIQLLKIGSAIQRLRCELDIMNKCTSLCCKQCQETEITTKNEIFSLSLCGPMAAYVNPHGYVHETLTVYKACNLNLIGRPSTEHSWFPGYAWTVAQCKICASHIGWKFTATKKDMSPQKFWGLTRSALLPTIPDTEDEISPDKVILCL
T1 sequence (Q16531 whole entry partner): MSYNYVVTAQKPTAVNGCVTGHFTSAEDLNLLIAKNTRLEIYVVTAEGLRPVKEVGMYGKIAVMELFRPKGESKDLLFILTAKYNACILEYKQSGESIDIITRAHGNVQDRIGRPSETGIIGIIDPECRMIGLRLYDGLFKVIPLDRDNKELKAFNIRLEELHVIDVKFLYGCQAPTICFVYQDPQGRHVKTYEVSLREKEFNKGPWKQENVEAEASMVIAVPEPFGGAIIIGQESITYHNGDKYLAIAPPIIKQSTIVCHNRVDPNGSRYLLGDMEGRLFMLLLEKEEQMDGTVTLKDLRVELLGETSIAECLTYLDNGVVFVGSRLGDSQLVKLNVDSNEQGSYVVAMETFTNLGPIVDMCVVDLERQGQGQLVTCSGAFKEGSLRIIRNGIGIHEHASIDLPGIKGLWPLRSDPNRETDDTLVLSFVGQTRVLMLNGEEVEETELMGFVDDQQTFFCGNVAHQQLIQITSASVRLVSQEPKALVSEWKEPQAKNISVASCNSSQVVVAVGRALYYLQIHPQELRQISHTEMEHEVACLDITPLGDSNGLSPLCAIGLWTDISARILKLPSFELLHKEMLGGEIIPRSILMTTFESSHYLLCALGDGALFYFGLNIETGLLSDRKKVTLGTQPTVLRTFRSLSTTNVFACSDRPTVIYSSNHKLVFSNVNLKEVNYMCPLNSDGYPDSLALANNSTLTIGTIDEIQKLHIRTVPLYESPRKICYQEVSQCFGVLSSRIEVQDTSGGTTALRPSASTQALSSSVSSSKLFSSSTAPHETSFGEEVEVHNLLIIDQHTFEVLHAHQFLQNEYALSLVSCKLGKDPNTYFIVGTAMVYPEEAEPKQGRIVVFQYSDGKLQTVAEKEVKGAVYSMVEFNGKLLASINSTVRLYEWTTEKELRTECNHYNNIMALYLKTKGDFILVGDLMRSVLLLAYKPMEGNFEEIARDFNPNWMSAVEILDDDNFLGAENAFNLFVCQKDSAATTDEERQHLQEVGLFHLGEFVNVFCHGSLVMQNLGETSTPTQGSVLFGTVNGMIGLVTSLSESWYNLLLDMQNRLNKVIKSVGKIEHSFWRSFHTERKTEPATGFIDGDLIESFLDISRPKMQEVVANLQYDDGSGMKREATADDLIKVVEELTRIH
T1 sequence (Q13422 whole entry): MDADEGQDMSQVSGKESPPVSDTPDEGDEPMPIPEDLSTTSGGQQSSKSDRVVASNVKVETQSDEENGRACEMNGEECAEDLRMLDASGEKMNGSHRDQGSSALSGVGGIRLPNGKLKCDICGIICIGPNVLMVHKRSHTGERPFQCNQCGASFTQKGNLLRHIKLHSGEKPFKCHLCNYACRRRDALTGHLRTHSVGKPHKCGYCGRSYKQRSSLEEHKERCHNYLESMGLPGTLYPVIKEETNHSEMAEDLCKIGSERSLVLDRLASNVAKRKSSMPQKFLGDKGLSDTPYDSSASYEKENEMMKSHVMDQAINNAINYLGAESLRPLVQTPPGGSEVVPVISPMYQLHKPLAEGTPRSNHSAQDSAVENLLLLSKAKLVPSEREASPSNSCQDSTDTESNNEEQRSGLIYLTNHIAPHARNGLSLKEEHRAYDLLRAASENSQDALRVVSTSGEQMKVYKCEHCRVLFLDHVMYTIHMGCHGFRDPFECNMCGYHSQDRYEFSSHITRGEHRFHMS
T2 sequence (Q9UKS7 whole entry): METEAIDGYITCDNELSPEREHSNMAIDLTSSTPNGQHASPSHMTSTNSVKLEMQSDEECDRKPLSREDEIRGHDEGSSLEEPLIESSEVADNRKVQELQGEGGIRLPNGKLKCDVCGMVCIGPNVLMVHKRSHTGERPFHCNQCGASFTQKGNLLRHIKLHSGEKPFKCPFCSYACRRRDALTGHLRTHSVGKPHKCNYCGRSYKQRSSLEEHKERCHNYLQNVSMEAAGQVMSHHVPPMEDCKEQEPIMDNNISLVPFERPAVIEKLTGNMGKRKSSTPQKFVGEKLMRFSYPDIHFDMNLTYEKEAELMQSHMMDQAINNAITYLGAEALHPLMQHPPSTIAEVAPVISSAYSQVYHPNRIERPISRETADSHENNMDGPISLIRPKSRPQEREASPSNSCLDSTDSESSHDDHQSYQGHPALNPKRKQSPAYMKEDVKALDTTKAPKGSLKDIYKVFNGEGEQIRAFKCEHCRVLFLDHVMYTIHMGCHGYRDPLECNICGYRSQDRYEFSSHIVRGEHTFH
T2 sequence (Q96SW2 whole entry): as the sequence (Q96SW2 whole entry partner) above
T2 sequence (Q16531 whole entry partner): as the sequence (Q16531 whole entry partner) above

As a reminder, the DC50 is the concentration at which degradation of the target reaches its halfway point. Low values mean degradation at low concentration, high ones degradation only at high concentration. Usually Dmax stands for the greatest extent of degradation seen. Consider `CC1(C)CCN(Cc2ccnc(-c3ccc4c(c3)CN(C3CCC(=O)NC3=O)C4=O)c2)CC1` (stereo not drawn) [Example 82, 3-(5-(4-((4,4-dimethylpiperidin-1-yl)methyl)pyridin-2-yl)-1-oxoisoindolin-2-yl)piperidine-2,6-dione], for which, on Ikaros (setting [1]), the DC50 is > 10000 nM and the Dmax stood at 17%. At Helios (setting [1]), it took 9 nM to reach half-maximal degradation (DC50) and the Dmax stood at 89%.

Regarding `O=C1CCC(N2Cc3cc(-c4cc(CN5CC(c6ccccc6)C5)ccn4)ccc3C2=O)C(=O)N1` (stereo not drawn) [Example 83, 3-(1-oxo-5-(4-((3-phenylazetidin-1-yl)methyl)pyridin-2-yl)isoindolin-2-yl)piperidine-2,6-dione], the DC50 was > 10000 nM on Ikaros (setting [1]) and 7 nM at Helios (setting [1]). Also, the results for the Dmax on Ikaros (setting [1]) and on Helios (setting [1]) were 20% and 91%, respectively.

For `O=C1CCC(N2Cc3cc(-c4cc(CN[C@@H]5CCC[C@@H]5c5ccccc5)ccn4)ccc3C2=O)C(=O)N1` (stereo partly drawn) [Example 84, 3-(1-oxo-5-(4-((((1R,2R)-2-phenylcyclopentyl)amino)methyl)pyridin-2-yl)isoindolin-2-yl)piperidine-2,6-dione], on Ikaros (setting [1]), the 50% degradation concentration (DC50) was > 10000 nM and the Dmax came out at 4%. On Helios (setting [1]), it took 40 nM to reach half-maximal degradation (DC50) and the Dmax was 69%.

Turning to `CC1(C)CCCN(Cc2ccnc(-c3ccc4c(c3)CN(C3CCC(=O)NC3=O)C4=O)c2)C1` (stereo not drawn) [Example 85, 3-(5-(4-((3,3-dimethylpiperidin-1-yl)methyl)pyridin-2-yl)-1-oxoisoindolin-2-yl)piperidine-2,6-dione], at Ikaros (setting [1]), the half-maximal degradation concentration (DC50) was > 10000 nM and the Dmax turned out to be 7%. Further, on Helios (setting [1]), the DC50 is > 10000 nM and the Dmax amounted to 20%.

`O=C1CCC(N2Cc3cc(-c4cc(CNC5CCCC5)ccn4)ccc3C2=O)C(=O)N1` (stereo not drawn) [Example 86, 3-(5-(4-((cyclopentylamino)methyl)pyridin-2-yl)-1-oxoisoindolin-2-yl)piperidine-2,6-dione]: on Ikaros (setting [1]), the DC50 was > 10000 nM and the Dmax was determined as 20%. Moreover, at Helios (setting [1]), the DC50 is 19 nM and the Dmax came to 91%.

Regarding `O=C1CCC(N2Cc3cc(-c4cc(CNC5CCCCC5)ccn4)ccc3C2=O)C(=O)N1` (stereo not drawn) [Example 87, 3-(5-(4-((cyclohexylamino)methyl)pyridin-2-yl)-1-oxoisoindolin-2-yl) piperidine-2,6-dione], on Ikaros (setting [1]), the DC50 is > 10000 nM and the Dmax amounted to 12%. For the same molecule, on Helios (setting [1]), the DC50 amounted to 29 nM and the Dmax worked out at 100%.

Take `O=C1CCC(N2Cc3cc(-c4cc(CNCCN5CCOCC5)ccn4)ccc3C2=O)C(=O)N1` (stereo not drawn) [Example 88, 3-(5-(4-(((2-morpholinoethyl)amino)methyl)pyridin-2-yl)-1-oxoisoindolin-2-yl)piperidine-2,6-dione]: on Ikaros (setting [1]), the 50% degradation concentration (DC50) was > 10000 nM and the Dmax is 27%. Further, at Helios (setting [1]), the DC50 came out at 72 nM and the Dmax was 102%.

For the molecule `CC(C)(C)NCc1ccnc(-c2ccc3c(c2)CN(C2CCC(=O)NC2=O)C3=O)c1` (stereo not drawn) [Example 89, 3-(5-(4-((tert-butylamino)methyl)pyridin-2-yl)-1-oxoisoindolin-2-yl)piperidine-2,6-dione], the half-maximal degradation concentration (DC50) at Ikaros (setting [1]) was > 10000 nM; at Helios (setting [1]), 103 nM. In addition, the Dmax turned out to be 8% at Ikaros and 71% on Helios.

Turning to `O=C1CCC(N2Cc3cc(-c4cc(CNCC(c5ccccc5)c5ccccc5)ccn4)ccc3C2=O)C(=O)N1` (stereo not drawn) [Example 90, 3-(5-(4-(((2,2-diphenylethyl)amino)methyl)pyridin-2-yl)-1-oxoisoindolin-2-yl)piperidine-2,6-dione], the DC50 on Ikaros (setting [1]) is > 10000 nM; at Helios (setting [1]), 213 nM. Also, the Dmax on Ikaros (setting [1]) worked out at 17%; on Helios (setting [1]) it was 61%.

`CC(=O)NCCNCc1ccnc(-c2ccc3c(c2)CN(C2CCC(=O)NC2=O)C3=O)c1` (stereo not drawn) [Example 91, N-(2-(((2-(2-(2,6-dioxopiperidin-3-yl)-1-oxoisoindolin-5-yl)pyridin-4-yl)methyl)amino)ethyl)acetamide]: the DC50 is > 10000 nM on Ikaros (setting [1]) and 3530 nM on Helios (setting [1]). Besides, the Dmax at Ikaros (setting [1]) came to 4%; at Helios (setting [1]), 60%.

Regarding `O=C1CCC(N2Cc3cc(-c4cc(CNCCO)ccn4)ccc3C2=O)C(=O)N1` (stereo not drawn) [Example 92, 3-(5-(4-(((2-hydroxyethyl)amino)methyl)pyridin-2-yl)-1-oxoisoindolin-2-yl) piperidine-2,6-dione], at Ikaros (setting [1]), the DC50 was > 10000 nM and the Dmax came out at 11%. Besides, at Helios (setting [1]), the DC50 stood at 209 nM and the Dmax was 92%.

For the molecule `O=C1CCC(N2Cc3cc(-c4cc(CNCCc5ccccc5Cl)ccn4)ccc3C2=O)C(=O)N1` (stereo not drawn) [Example 93, 3-(5-(4-(((2-chlorophenethyl)amino)methyl)pyridin-2-yl)-1-oxoisoindolin-2-yl)piperidine-2,6-dione], on Ikaros (setting [1]), the DC50 is > 10000 nM and the Dmax is 23%. At Helios (setting [1]), the DC50 was 9 nM and the Dmax was 103%.

For the molecule `O=C1CCC(N2Cc3cc(-c4cc(CNCCc5ccc(Cl)cc5)ccn4)ccc3C2=O)C(=O)N1` (stereo not drawn) [Example 94, 3-(5-(4-(((4-chlorophenethyl)amino)methyl)pyridin-2-yl)-1-oxoisoindolin-2-yl)piperidine-2,6-dione], at Ikaros (setting [1]), the DC50 was > 10000 nM and the Dmax stood at 11%. On Helios (setting [1]), half-maximal degradation (DC50) was put at 35 nM and the Dmax came out at 74%.

Take `COc1ccc(CCNCc2ccnc(-c3ccc4c(c3)CN(C3CCC(=O)NC3=O)C4=O)c2)cc1` (stereo not drawn) [Example 95, 3-(5-(4-(((4-methoxyphenethyl)amino)methyl)pyridin-2-yl)-1-oxoisoindolin-2-yl)piperidine-2,6-dione]: the values for the DC50 at Ikaros (setting [1]) and at Helios (setting [1]) were > 10000 nM and 34 nM, respectively. Besides, the Dmax on Ikaros (setting [1]) came out at 17%; at Helios (setting [1]), 94%.

On to `O=C1CCC(N2Cc3cc(-c4cc(CNCCc5ccc(O)cc5)ccn4)ccc3C2=O)C(=O)N1` (stereo not drawn) [Example 96, 3-(5-(4-(((4-hydroxyphenethyl)amino)methyl)pyridin-2-yl)-1-oxoisoindolin-2-yl) piperidine-2,6-dione], for which the values for the 50% degradation concentration (DC50) at Ikaros (setting [1]) and at Helios (setting [1]) were > 10000 nM and 19 nM, respectively. Also, the Dmax was found to be 25% on Ikaros (setting [1]) and 94% at Helios (setting [1]).

On to `CC(C)CCNCc1ccnc(-c2ccc3c(c2)CN(C2CCC(=O)NC2=O)C3=O)c1` (stereo not drawn) [Example 97, 3-(5-(4-((isopentylamino)methyl)pyridin-2-yl)-1-oxoisoindolin-2-yl)piperidine-2,6-dione], for which, at Ikaros (setting [1]), the DC50 is > 10000 nM and the Dmax was determined as 11%. Moreover, on Helios (setting [1]), half-maximal degradation (DC50) was put at 8 nM and the Dmax came out at 90%.

Turning to `O=C1CCC(N2Cc3cc(-c4cc(CNCCCc5ccccc5)ccn4)ccc3C2=O)C(=O)N1` (stereo not drawn) [Example 98, 3-(1-oxo-5-(4-(((3-phenylpropyl)amino)methyl)pyridin-2-yl)isoindolin-2-yl)piperidine-2,6-dione], on Ikaros (setting [1]), the DC50 is > 10000 nM and the Dmax amounted to 8%. Besides, at Helios (setting [1]), half-maximal degradation (DC50) was put at 6 nM and the Dmax came out at 91%.

`N#CCNCc1ccnc(-c2ccc3c(c2)CN(C2CCC(=O)NC2=O)C3=O)c1` (stereo not drawn) [Example 99, 2-(((2-(2-(2,6-dioxopiperidin-3-yl)-1-oxoisoindolin-5-yl)pyridin-4-yl)methyl)amino)acetonitrile]: at Ikaros (setting [1]), the DC50 was > 10000 nM and the Dmax is 6%. At Helios (setting [1]), the DC50 is 419 nM and the Dmax stood at 65%.

In the case of `NC(=O)CNCc1ccnc(-c2ccc3c(c2)CN(C2CCC(=O)NC2=O)C3=O)c1` (stereo not drawn) [Example 100, 2-(((2-(2-(2,6-dioxopiperidin-3-yl)-1-oxoisoindolin-5-yl)pyridin-4-yl)methyl)amino) acetamide], at Ikaros (setting [1]), the DC50 was > 10000 nM and the “Ikaros Dmax” value is given as 6%. Besides, on Helios (setting [1]), it took 6130 nM to reach half-maximal degradation (DC50) and the “Helios Dmax” value is 55%.

For the molecule `O=C1CCC(N2Cc3cc(-c4cc(CNC5CCC(O)CC5)ccn4)ccc3C2=O)C(=O)N1` (stereo not drawn) [Example 101, 3-(5-(4-(((4-hydroxycyclohexyl)amino)methyl)pyridin-2-yl)-1-oxoisoindolin-2-yl)piperidine-2,6-dione], at Ikaros (setting [1]), the DC50 is > 10000 nM and the Dmax amounted to 22%. At Helios (setting [1]), the DC50 stood at 59 nM and the Dmax amounted to 89%.

Regarding `O=C1CCC(N2Cc3cc(-c4cc(CNCCc5cccc(Cl)c5)ccn4)ccc3C2=O)C(=O)N1` (stereo not drawn) [Example 102, 3-(5-(4-(((3-chlorophenethyl)amino)methyl)pyridin-2-yl)-1-oxoisoindolin-2-yl)piperidine-2,6-dione], at Ikaros (setting [1]), the DC50 is > 10000 nM and the Dmax was found to be 10%. In addition, at Helios (setting [1]), the DC50 is 11 nM and the Dmax came out at 97%.

`O=C1CCC(N2Cc3cc(-c4cc(CNCCOc5ccccc5)ccn4)ccc3C2=O)C(=O)N1` (stereo not drawn) [Example 103, 3-(1-oxo-5-(4-(((2-phenoxyethyl)amino)methyl)pyridin-2-yl)isoindolin-2-yl)piperidine-2,6-dione]: the figures for the DC50 on Ikaros (setting [1]) and at Helios (setting [1]) were > 10000 nM and 36 nM, respectively. For the same molecule, the Dmax amounted to 1% at Ikaros (setting [1]) and 95% on Helios (setting [1]).

As to `O=C1CCC(N2Cc3cc(-c4cc(CNC5CCN(Cc6ccccc6)C5)ccn4)ccc3C2=O)C(=O)N1` (stereo not drawn) [Example 104, 3-(5-(4-(((1-benzylpyrrolidin-3-yl)amino)methyl)pyridin-2-yl)-1-oxoisoindolin-2-yl) piperidine-2,6-dione], on Ikaros (setting [1]), the DC50 is > 10000 nM and the Dmax came out at 1%. Moreover, on Helios (setting [1]), the DC50 is > 10000 nM and the Dmax turned out to be 44%.

With `NC(=O)CCNCc1ccnc(-c2ccc3c(c2)CN(C2CCC(=O)NC2=O)C3=O)c1` (stereo not drawn) [Example 105, 3-(((2-(2-(2,6-dioxopiperidin-3-yl)-1-oxoisoindolin-5-yl)pyridin-4-yl)methyl)amino)propanamide], on Ikaros (setting [1]), the DC50 was > 10000 nM and the Dmax turned out to be 5%. Further, at Helios (setting [1]), the DC50 worked out at 264 nM and the Dmax came to 79%.
